Results from US12527773B2, “Flavi-block: a pan-flavivirus inhibitor” (Baden-Württemberg Stiftung GmbH, priority 2020, dated 2026).
Several values for one entry are separate records, joined by “and”; a condition that tells them apart may be missing. Equal values may be shown once. Entries after “also recorded” stand apart in the source; their conditions may differ. Read-outs that look alike come from different tables or passages of the source.

Key:
DEN1/2 = experiment: IC50 in established virological assays (Table 1), DEN1/2; assay type: cell-based; conditions: Dengue virus
Text: (§1) In summary, a set of C10 derivatives (FIG. 12) was designed, synthesized and tested against HCV (which is considered as an established system to monitor drug effects against Flaviviridae) as well as DENV for comprehensive structure-activity relationship (SAR) analysis and target validation.

Huh7.5 cells = experiment: Cytotoxicity in Huh7.5 cells (Cell Titer Glo, ATP); assay type: cell-based; conditions: Huh7.5, 24 h
Method: (§2) Cell viability was measured via the presence of ATP using the Promega Cell Titer Glo kit according to the manufacturer's instructions. Luminescence was detected using the Cytation3 by Biotek. […] (B) The same set of data as shown in FIG. 4A was plotted in a line graph. […] (D) As for FIG. 4A, Huh7.5 cells (1.0×10^4 cells/well) were seeded and incubated with C10 at the indicated concentrations for the indicated time points before measurement of viability using the Promega Cell Titer Glo kit.
(§3) Cell viability was measured by the presence of ATP using the Promega Cell Titer Glo Kit according to the manufacturer's instructions. Luminescence was detected using a Biotek Cytation3.
(§4) In the analysis of the data, all values were normalized against the DMSO control and presented in terms of percentage viability. The result is shown in the bar chart of FIG. 4A and the line chart of FIG. 4B; n≥6 with SEM.
(§5) For this purpose, Huh7.5 cells were seeded, treated and analyzed as described above. The CC50 values for C10, D1, D2, and D3 were calculated using GraphPad Prism6 software with a non-linear regression curve fitting algorithm, as shown in FIG. 4B. It should be noted that the tested compounds precipitate at concentrations above 160 μM in aqueous solutions. For this reason, higher concentrations cannot be tested.

[1] = Cytotoxicity in Huh7.5 cells (Cell Titer Glo, ATP); assay type: cell-based; conditions: human, Huh7.5 cells; Huh7.5, 24 h
Method: as §2, §3, §4, §5

HIV = experiment: IC50 in established virological assays (Table 1), HIV; assay type: cell-based
Method: as §1, with “validation. IC50 and CC50 values for compound C10 were determined in established virological assays (Table 1). […] Further, said experiments underline the specificity of compound C10 for flaviviruses.” for “validation.”

[2] = Pharmacokinetic study in Balb/c mice, intravenous administration; assay type: in vivo; set-up: Kel (Lambda_z): unit not given here; conditions: for Plasma concentration, Group A-D: single animals; for half-life: iv
Method: Study design, animal selection, handling and treatment were all in accordance with the study protocols and institutional animal care and use guidelines. Male Balb/c mice (9-10 weeks old, body weight 22.3 to 38.1 g and average body weight across all groups 31.4 g, SD=3.20 g) were used in this study. The animals were randomly assigned to the treatment groups before the pharmacokinetic study; all animals were fasted for 4 h before dosing. Six time points for PO (15, 30, 60, 120, 240 and 360 min) and IV (5, 15, 30, 60, 120 and 240 min) routes were used in this pharmacokinetic study. Each of the PO and IV time point treatment groups included 4 animals. There was also control group of 2 animals. Dosing was done according to the treatment schedules outlined in Table 3. Mice were injected IV with 2,2,2-tribromoethanol at the dose of 150 mg/kg prior to taking blood. Blood collection was performed from the orbital sinus in microtainers containing K2EDTA. Animals were sacrificed by cervical dislocation after blood samples collection. All samples were immediately prepared, flash-frozen and stored at −70° C. until subsequent bioanalysis.
Samples Processing Plasma samples ([…]) were mixed with […] of IS solution. After mixing by pipetting and centrifuging for 4 min at 6,000 rpm, […] of each supernatant was injected into LC-MS/MS system. Solution of compound IS-02-03 (200 ng/ml in acetonitrile-methanol mixture, 1:1, v/v) was used as internal standard (IS) for quantification of C10 in plasma samples. Samples Analysis The concentrations of C10 were determined using high performance liquid chromatography/tandem mass spectrometry (HPLC-MS/MS). Shimadzu H PLC system comprised of 2 isocratic pumps LC-10Advp, an autosampler SIL-HTc, a sub-controller FCV-14AH and a degasser DGU-14A. Mass spectrometric analysis was performed using an API 3000 (triple-quadrupole) instrument from AB Sciex (Canada) with an electro-spray (ESI) interface. The data acquisition and system control was performed using Analyst 1.5.2 software from AB Sciex. HPLC-MS/MS Conditions
The pharmacokinetic data analysis was performed using non-compartmental, bolus injection or extravascular input analysis models in WinNonlin 5.2 (PharSight). Data below LLOQ were presented as missing to improve validity of T1/2 calculations. No outlier data points were removed from calculations. The bioavailability for the peroral route was calculated as: […]

[3] = male, Balb/c, mouse, plasma, IV 5 mg/kg

Structure (SMILES): CCN1/C(=C\C=C\c2sc3cc(NC(C)=O)ccc3[n+]2CC)Sc2cc(NC(C)=O)ccc21.[I-] [C10, 6-acetamido-2-((1E,3E)-3-(6-acetamido-3-ethylbenzo[d]thiazol-2(3H)-ylidene)prop-1-en-1-yl)-3-ethylbenzo[d]thiazol-3-ium iodide]
- IC50 (DEN1/2): 0.11 to 0.18 µM
- concentration up to which not toxic (Huh7.5 cells): up to 40 μM
- CC50 at 24 h [1]: 106 µM
- activity against HIV (HIV): does not act on HIV
- IC50 (HIV; Human immunodeficiency virus 1, HIV): > 100 µM
- Kel (Lambda_z) ([2]; IV 5 mg/kg): 0.00581
- Vd (Vz_obs) ([2]; IV 5 mg/kg): 14.1 L/kg
- Plasma concentration, Mean ([2]; IV 5 mg/kg, 5 min): 2690 ng(ml)
- Plasma concentration, Group A-D ([2]; IV 5 mg/kg, 5 min, 5 mg/kg): 2780 ng(ml) and 2310 ng(ml) and 2606 ng(ml) and 3063 ng(ml)
- Plasma concentration, Mean ([2]; IV 5 mg/kg, 15 min): 311 ng(ml)
- Plasma concentration, Group A-D ([2]; IV 5 mg/kg, 15 min, 5 mg/kg): 185 ng(ml) and 316 ng(ml) and 521 ng(ml) and 221 ng(ml)
- Plasma concentration, Mean ([2]; IV 5 mg/kg, 30 min): 154 ng(ml)
- Plasma concentration, Group A-D ([2]; IV 5 mg/kg, 30 min, 5 mg/kg): 109 ng(ml) and 152 ng(ml) and 189 ng(ml) and 164 ng(ml)
- Plasma concentration, Mean ([2]; IV 5 mg/kg, 60 min): 109 ng(ml)
- Plasma concentration, Group A-D ([2]; IV 5 mg/kg, 60 min, 5 mg/kg): 93 ng(ml) and 160 ng(ml) and 89 ng(ml) and 92 ng(ml)
- Plasma concentration, Mean ([2]; IV 5 mg/kg, 120 min): 60 ng(ml)
- Plasma concentration, Group A-D ([2]; IV 5 mg/kg, 120 min, 5 mg/kg): 69 ng(ml) and 44 ng(ml) and 59 ng(ml) and 67 ng(ml)
- Plasma concentration, Mean ([2]; IV 5 mg/kg, 240 min): 43 ng(ml)
- Plasma concentration, Group A-D ([2]; IV 5 mg/kg, 240 min, 5 mg/kg): 47 ng(ml) and 43 ng(ml) (2×) and 40 ng(ml)
- tolerability in mice ([2]; IV, 5 mg/kg): tolerated; also recorded: not toxic at high concentrations
- Vd ([2]; male, Balb/c, mouse, plasma, 5 mg/kg, calculated, IV, read-out: volume of distribution): 14.1 L/kg
- half-life ([2]; male, Balb/c, mouse, plasma, 5 mg/kg, IV 5 mg/kg, read-out: T1/2 (HL_Lambda_z)): 1.98 h
- half-life ([2]; male, Balb/c, mouse, plasma, 5 mg/kg, mice, IV administration, read-out: half-life in plasma/serum (converted)): ~2 h
- Cmax [2, 3]: 2690 ng/mL
- Tmax [2, 3]: 5 min
- AUC(0-t) ([2]; male, Balb/c, mouse, plasma, IV 5 mg/kg, read-out: AUC0→t = 240 min (AUClast) (converted)): 892 ng·h/mL
- AUC(0-inf) ([2]; male, Balb/c, mouse, plasma, IV 5 mg/kg, read-out: AUC0→∞ (AUCINF_obs) (converted)): 1020 ng·h/mL
- clearance ([2]; male, Balb/c, mouse, plasma, IV 5 mg/kg, read-out: CL (Cl_obs)): 82.1 mL/min/kg
- MRT inf ([2]; male, Balb/c, mouse, plasma, IV 5 mg/kg, read-out: MRT (MRTinf) (converted)): 1.36 h
- MRT last ([2]; male, Balb/c, mouse, plasma, IV 5 mg/kg, read-out: MRT (MRTlast) (converted)): 0.59 h
